The source of these data is patent US8357506B2, “Method of identifying improved conjugates of biologically active compounds” (priority 2002, dated 2013).

The subject of one data set is white blood cells. Briefly: Immune cell selective uptake (immune selectivity ratio) in blood cell / buffy coat preparations. The format is cell-based. As to conditions: fluorescent compounds, FIG. 1. As for the experimental part:
Freshly drawn heparinised blood or buffy coat preparations are used for the determination of immune cell partition ratios. Buffy coat preparations are preferred. These may be obtained from donor blood by simple centrifugation of whole blood (4795 g for 10 minutes). Following centrifugation, plasma is collected from the surface, after which immune cells are expressed from the donor bags along with the erythrocytes lying immediately below the leukocyte layer. This ensures high yields and a sufficient population of erythrocytes for partition. 5 ml of the resulting cell suspension are dispensed into T25 culture flasks. Substrates are added to a final concentration between 1 and 10 μM and the suspensions incubated at 37° C., in a 5% CO2 atmosphere. For analysis of uptake kinetics, samples are withdrawn at 0, 2, 5, 10, 30, 60, 90, 180, or 240 min after substrate addition. For screening purposes, samples are taken at 0 and 120 minutes. […]
Uptake of fluorescent compounds is monitored using fluorescence microscopy. Excitation and emission wavelengths depend of the fluorescence label in use. […]
Cell lysates are analysed using a HP 1100 HPLC System (Agilent Technologies, Waldbronn, Germany) with a Kromasil 3.5μ […], 50×2.0 mm column and guard cartridge system (both, Phenomenex, Aschaffenburg, Germany) run at 30° C. […]
Masses are monitored according to the known or expected M/Z ratios. […]

A further data set deals with E. coli. As to the kind of experiment: Antibiotic activity testing (TC50, dilution assay, turbidity). The format is cell-based, E. coli (DH5α). As to the method: The TC50 or MIC procedure for antibiotic sensitivity testing involves an antibiotic dilution assay, which can be performed in microtitre plates. A series of twofold dilutions of each antibiotic are made in the wells, and then all wells are inoculated with a standard amount of the same test organism. After incubation, growth in the presence of the various antibiotics is observed by measuring turbidity.
Bacteria: B. pumilus and E. coli (DH5α)
Bacterial cultures are initiated from the plates for 2 to 3 weeks. After this time period bacteria are streaked out on new plates from the backups stored at −80° C. Due to the lack of resistance of the bacteria, new cultures are not to be initiated from an old plate or any liquid cultures derived from old plates.
Growth medium (GM) (per liter): 10 g Bacto-tryptone, 5 g Bacto-yeast extract, 6 g HEPES (25 mM), 5.4 g NaCl, pH 7.3
Compound stocks 10 or 100 mM in DMSO stored at −20° C.
• 1. Grow B. pumilus from an LB agar plate in a flask (max. 10% volume) up to about 50 ml in growth medium (GM) • 2. Dilute overnight suspension 1:10 in GM • 3. Determine OD600 of diluted bacterial suspension • 4. Dilute bacterial suspension in GM to an OD600 of 0.03-0.04. (6 ml/plate) • 5. Add 200 μl GM to the outer wells (Row A, Row H, Column 1, Column 12) • 6. Add 100 μl GM to each well starting from C2, row 3. • 7. […]
8.3. […] Determine OD600 on plate reader.

Regarding `COc1cc(C)c(/C(=C\C(C)=O)CC(N)C(=O)O)cc1OC` (centres unmarked) [Compound 4], the uptake rate result in the data set on white blood cells is on record as “rapid”. In the case of `CCC1OC(=O)C(C)C(OC2CC(C)(OC)C(O)C(C)O2)C(C)C(OC2OC(C)CC(NC)C2O)C(C)(O)CC(C)CN(C)C(C)C(O)C1(C)O` (centres unmarked) [Compound 96], the “TC50 in E. coli” value in the data set on E. coli came out at 28 µM.
